Measurements as given in patent publication US9346798B2, “Dihydrobenzoxazine and tetrahydroquinoxaline sodium channel inhibitors” (AMGEN INC., priority 2012, dated 2016).
pIC50: −log10 of the molar value.

Assays:
Type in all cases: cell-based
Nav 1.7 [1] = target: T1, Nav 1.7 (Homo sapiens (Human), UniProt Q15858); test: Nav 1.7 in vitro assay, IonWorks Quattro (IWQ) population patch-clamp; settings: HEK 293 cells stably transfected with Nav 1.7; 26th pulse to -20 mV
Nav 1.5 = Nav 1.5 (Homo sapiens (Human), UniProt Q14524); test: Nav 1.5 in vitro assay, IonWorks Quattro (IWQ) population patch-clamp; settings: HEK 293 cells stably transfected with Nav 1.5; 26th pulse to -20 mV
Chain of Nav 1.5 (Q14524 whole entry): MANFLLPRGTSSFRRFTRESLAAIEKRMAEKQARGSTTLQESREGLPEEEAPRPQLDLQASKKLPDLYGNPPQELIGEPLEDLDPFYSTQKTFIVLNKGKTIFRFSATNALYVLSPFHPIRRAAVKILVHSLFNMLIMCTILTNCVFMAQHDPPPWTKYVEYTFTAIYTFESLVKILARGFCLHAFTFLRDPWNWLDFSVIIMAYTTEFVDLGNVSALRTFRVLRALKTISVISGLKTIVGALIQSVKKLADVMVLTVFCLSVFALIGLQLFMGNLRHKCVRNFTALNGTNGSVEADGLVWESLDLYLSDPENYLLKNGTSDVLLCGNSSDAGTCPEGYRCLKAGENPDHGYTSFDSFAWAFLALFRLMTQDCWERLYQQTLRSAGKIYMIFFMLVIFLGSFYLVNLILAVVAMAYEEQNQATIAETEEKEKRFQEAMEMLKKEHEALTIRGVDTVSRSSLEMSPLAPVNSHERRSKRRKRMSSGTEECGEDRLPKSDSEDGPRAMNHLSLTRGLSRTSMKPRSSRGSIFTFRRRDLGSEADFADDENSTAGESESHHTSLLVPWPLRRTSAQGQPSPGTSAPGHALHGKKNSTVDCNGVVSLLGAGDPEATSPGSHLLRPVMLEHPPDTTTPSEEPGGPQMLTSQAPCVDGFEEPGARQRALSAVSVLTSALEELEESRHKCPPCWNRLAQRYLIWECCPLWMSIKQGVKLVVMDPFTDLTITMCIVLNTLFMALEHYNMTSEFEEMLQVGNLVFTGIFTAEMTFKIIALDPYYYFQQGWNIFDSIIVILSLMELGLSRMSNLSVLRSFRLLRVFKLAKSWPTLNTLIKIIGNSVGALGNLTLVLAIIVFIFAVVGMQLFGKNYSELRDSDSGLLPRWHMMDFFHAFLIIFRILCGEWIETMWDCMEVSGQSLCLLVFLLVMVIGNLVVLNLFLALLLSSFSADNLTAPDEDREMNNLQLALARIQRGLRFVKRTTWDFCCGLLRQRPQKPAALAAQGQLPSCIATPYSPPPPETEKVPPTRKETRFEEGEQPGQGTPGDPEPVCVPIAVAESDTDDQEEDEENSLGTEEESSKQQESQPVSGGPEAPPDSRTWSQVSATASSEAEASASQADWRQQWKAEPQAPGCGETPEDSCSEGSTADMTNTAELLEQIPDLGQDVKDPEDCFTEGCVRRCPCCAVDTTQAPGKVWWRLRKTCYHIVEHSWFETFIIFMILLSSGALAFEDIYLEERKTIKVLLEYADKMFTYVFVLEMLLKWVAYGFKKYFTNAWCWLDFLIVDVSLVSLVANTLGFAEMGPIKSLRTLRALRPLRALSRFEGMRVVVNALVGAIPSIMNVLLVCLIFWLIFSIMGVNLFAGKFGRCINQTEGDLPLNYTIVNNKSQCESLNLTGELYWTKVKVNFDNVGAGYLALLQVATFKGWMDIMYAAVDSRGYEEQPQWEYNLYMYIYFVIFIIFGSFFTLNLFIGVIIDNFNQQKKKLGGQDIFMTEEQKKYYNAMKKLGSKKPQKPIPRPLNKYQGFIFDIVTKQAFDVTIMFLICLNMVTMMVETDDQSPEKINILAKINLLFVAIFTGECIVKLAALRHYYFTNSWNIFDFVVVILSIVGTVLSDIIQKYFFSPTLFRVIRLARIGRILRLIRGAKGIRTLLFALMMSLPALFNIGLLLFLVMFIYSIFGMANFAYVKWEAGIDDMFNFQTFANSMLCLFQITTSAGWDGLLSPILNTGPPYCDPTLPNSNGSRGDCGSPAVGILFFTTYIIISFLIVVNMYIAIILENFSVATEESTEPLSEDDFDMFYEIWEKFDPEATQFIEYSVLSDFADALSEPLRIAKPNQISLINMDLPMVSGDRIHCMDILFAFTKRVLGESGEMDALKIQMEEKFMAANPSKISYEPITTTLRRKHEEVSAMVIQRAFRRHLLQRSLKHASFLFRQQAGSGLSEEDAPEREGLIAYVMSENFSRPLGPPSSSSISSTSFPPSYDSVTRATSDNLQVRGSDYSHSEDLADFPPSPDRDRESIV

Nav 1.7 [2] = target: T1, Nav 1.7; test: Nav 1.7 in vitro PX assay, PatchXpress whole cell voltage clamp; settings: HEK 293 cells stably transfected with human Nav1.7; partially inactivated state (20 to 50% inactivation)
How it was run: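 HEK293 cells stably expressing human Nav1.7, whole-cell voltage clamp at a holding potential giving 20–50% inactivation; currents elicited by 20 msec pulses to −10 mV at 0.1 Hz.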

T1 sequence (Q15858 whole entry): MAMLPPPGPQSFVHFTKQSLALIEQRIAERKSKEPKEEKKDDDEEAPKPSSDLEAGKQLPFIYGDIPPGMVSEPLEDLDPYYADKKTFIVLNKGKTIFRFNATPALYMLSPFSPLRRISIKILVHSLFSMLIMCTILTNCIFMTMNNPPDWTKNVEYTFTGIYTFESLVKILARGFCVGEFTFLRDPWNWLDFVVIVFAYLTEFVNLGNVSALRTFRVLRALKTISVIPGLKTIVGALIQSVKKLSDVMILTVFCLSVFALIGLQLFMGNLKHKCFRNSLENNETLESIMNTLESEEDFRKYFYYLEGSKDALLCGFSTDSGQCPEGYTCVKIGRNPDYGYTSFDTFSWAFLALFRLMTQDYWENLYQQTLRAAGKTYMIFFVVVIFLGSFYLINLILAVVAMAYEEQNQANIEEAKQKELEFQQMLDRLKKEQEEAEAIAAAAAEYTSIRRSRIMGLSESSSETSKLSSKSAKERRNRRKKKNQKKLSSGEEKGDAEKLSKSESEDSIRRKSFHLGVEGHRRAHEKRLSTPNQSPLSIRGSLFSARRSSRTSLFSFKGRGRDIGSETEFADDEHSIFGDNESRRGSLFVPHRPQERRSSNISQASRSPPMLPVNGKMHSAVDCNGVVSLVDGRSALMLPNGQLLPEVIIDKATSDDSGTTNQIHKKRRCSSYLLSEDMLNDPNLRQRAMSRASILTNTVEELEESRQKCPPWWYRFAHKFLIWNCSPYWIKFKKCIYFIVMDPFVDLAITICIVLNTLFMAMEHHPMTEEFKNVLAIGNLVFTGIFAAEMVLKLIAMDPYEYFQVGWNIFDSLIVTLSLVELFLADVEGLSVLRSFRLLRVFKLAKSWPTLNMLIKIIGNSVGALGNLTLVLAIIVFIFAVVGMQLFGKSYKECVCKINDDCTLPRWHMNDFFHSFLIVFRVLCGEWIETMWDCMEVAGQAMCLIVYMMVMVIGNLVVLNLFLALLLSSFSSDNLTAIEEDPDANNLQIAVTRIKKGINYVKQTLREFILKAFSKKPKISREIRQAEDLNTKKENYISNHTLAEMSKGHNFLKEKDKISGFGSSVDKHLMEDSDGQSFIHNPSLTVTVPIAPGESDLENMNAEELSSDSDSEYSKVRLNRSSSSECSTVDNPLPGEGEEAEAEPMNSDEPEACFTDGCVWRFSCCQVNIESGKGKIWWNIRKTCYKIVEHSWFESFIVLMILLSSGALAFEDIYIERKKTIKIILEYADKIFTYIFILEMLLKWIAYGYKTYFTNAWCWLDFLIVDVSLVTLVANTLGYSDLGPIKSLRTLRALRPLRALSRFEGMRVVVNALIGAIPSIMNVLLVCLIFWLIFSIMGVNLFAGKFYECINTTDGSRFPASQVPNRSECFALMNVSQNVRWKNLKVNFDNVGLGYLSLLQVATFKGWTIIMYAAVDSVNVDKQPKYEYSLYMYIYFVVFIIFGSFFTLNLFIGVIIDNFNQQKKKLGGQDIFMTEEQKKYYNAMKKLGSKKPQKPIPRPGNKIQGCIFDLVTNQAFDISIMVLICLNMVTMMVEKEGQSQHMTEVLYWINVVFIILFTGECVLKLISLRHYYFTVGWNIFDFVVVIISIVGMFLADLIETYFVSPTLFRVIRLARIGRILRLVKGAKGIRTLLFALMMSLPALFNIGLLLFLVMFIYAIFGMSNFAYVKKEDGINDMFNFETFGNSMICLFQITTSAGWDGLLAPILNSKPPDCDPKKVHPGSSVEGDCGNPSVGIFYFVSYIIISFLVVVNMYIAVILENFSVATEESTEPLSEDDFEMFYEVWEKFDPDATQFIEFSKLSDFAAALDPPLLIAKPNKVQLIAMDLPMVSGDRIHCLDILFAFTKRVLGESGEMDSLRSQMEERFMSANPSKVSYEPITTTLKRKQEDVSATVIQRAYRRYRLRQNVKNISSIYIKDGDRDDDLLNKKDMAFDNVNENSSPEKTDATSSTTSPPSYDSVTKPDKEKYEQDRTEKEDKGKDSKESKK

Compound | pIC50 (Nav 1.7 [1]) | pIC50 (Nav 1.5) | pIC50 (Nav 1.7 [2])
Nc1cc(-c2cc(C(F)(F)F)ccc2N2CCOc3cc(S(=O)(=O)Nc4ncns4)ccc32)ccn1 [Example 29, 4-(2-(2-Aminopyridin-4-Yl)-4-(Trifluoromethyl)Phenyl)-N-(1,2,4-Thiadiazol-5-Yl)-3,4-Dihydro-2H-Benzo[B][1,4]Oxazine-7-Sulfonamide] | 8.02 | 6.20 | 7.10
O=S(=O)(Nc1ncns1)c1ccc2c(c1)OCCN2c1ccccc1 [Example 30, 4-Phenyl-N-(1,2,4-Thiadiazol-5-Yl)-3,4-Dihydro-2H-Benzo[B][1,4]Oxazine-7-Sulfonamide] | 6.85 | < 5.00 | 6.12
N#Cc1cc(C(F)(F)F)ccc1N1CCOc2cc(S(=O)(=O)Nc3ncns3)ccc21 [Example 31, 4-(2-Cyano-4-(Trifluoromethyl)Phenyl)-N-(1,2,4-Thiadiazol-5-Yl)-3,4-Dihydro-2H-Benzo[B][1,4]Oxazine-7-Sulfonamide] | 7.80 | 5.84 | 7.04
O=S(=O)(Nc1ccncn1)c1ccc2c(c1)OCCN2c1ccc(C(F)(F)F)cc1Cl [Example 32, 4-(2-Chloro-4-(Trifluoromethyl)Phenyl)-N-(Pyrimidin-4-Yl)-3,4-Dihydro-2H-Benzo[B][1,4]Oxazine-7-Sulfonamide] | 7.14 | 5.32 | 6.27
O=S(=O)(Nc1ncns1)c1ccc2c(c1)OCCN2c1cccc2ncccc12 [Example 33, 4-(Quinolin-5-Yl)-N-(1,2,4-Thiadiazol-5-Yl)-3,4-Dihydro-2H-Benzo[B][1,4]Oxazine-7-Sulfonamide] | 6.85 | < 5.00 | 5.92
O=S(=O)(Nc1ncns1)c1ccc2c(c1)OCC(c1ccccc1)N2c1ccc(C(F)(F)F)cc1 (stereo not drawn) [Example 34, 3-Phenyl-N-(1,2,4-Thiadiazol-5-Yl)-4-(4-(Trifluoromethyl)Phenyl)-3,4-Dihydro-2H-Benzo[B][1,4]Oxazine-7-Sulfonamide] | 5.61 | < 5.00 | 5.46
O=S(=O)(Nc1ncns1)c1ccc2c(c1)OCCN2c1cccc(OC(F)(F)F)c1 [Example 35, N-(1,2,4-Thiadiazol-5-Yl)-4-(3-(Trifluoromethoxy)Phenyl)-3,4-Dihydro-2H-Benzo[B][1,4]Oxazine-7-Sulfonamide] | 7.36 | < 5.00 | 6.86
O=S(=O)(Nc1ncns1)c1ccc2c(c1)OCCN2c1cccc2ccccc12 [Example 36, 4-(Naphthalen-1-Yl)-N-(1,2,4-Thiadiazol-5-Yl)-3,4-Dihydro-2H-Benzo[B][1,4]Oxazine-7-Sulfonamide] | 7.50 | < 5.00 | 6.84
COc1ccc(N2CCOc3cc(S(=O)(=O)Nc4ncns4)ccc32)cc1 [Example 37, 4-(4-Methoxyphenyl)-N-(1,2,4-Thiadiazol-5-Yl)-3,4-Dihydro-2H-Benzo[B][1,4]Oxazine-7-Sulfonamide] | 6.68 | < 5.00 | 5.66
COCCOc1ccc(N2CCOc3cc(S(=O)(=O)Nc4ncns4)ccc32)cc1 [Example 39, 4-(4-(2-Methoxyethoxy)Phenyl)-N-(1,2,4-Thiadiazol-5-Yl)-3,4-Dihydro-2H-Benzo[B][1,4]Oxazine-7-Sulfonamide] | 6.48 | < 5.00 | 5.04
O=S(=O)(Nc1nccs1)c1ccc2c(c1)OCCN2c1ccc(Cl)cc1 [Example 40, 4-(4-Chlorophenyl)-N-(Thiazol-2-Yl)-3,4-Dihydro-2H-Benzo[B][1,4]Oxazine-7-Sulfonamide] | 6.15 | < 5.00 | 5.36
O=S(=O)(Nc1nccs1)c1ccc2c(c1)OCCN2c1cccc(Cl)c1 [Example 41, 4-(3-Chlorophenyl)-N-(Thiazol-2-Yl)-3,4-Dihydro-2H-Benzo[B][1,4]Oxazine-7-Sulfonamide] | 6.95 | 5.31 | 6.19
Cn1nccc1-c1cc(C(F)(F)F)ccc1N1CCOc2cc(S(=O)(=O)Nc3nccs3)ccc21 [Example 42, 4-(2-(1-Methyl-1H-Pyrazol-5-Yl)-4-(Trifluoromethyl)Phenyl)-N-(Thiazol-2-Yl)-3,4-Dihydro-2H-Benzo[B][1,4]Oxazine-7-Sulfonamide] | 6.92 | < 5.00 | 5.81
O=S(=O)(Nc1nccs1)c1ccc2c(c1)OCCN2c1ccc(C(F)(F)F)cc1Br [Example 43, 4-(2-Bromo-4-(Trifluoromethyl)Phenyl)-N-(Thiazol-2-Yl)-3,4-Dihydro-2H-Benzo[B][1,4]Oxazine-7-Sulfonamide] | 6.94 | 5.73 | 6.01
CN1CC=C(c2cc(C(F)(F)F)ccc2N2CCOc3cc(S(=O)(=O)Nc4nccs4)ccc32)CC1 [Example 44, 4-(2-(1-Methyl-1,2,3,6-Tetrahydropyridin-4-Yl)-4-(Trifluoromethyl)Phenyl)-N-(Thiazol-2-Yl)-3,4-Dihydro-2H-Benzo[B][1,4]Oxazine-7-Sulfonamide] | 7.85 | 5.44 | 7.16
O=S(=O)(Nc1ccncn1)c1ccc2c(c1)OCCN2c1ccc(C(F)(F)F)cc1C1=CCNCC1 [Example 45, N-(Pyrimidin-4-Yl)-4-(2-(1,2,3,6-Tetrahydropyridin-4-Yl)-4-(Trifluoromethyl)Phenyl)-3,4-Dihydro-2H-Benzo[B][1,4]Oxazine-7-Sulfonamide 2,2,2-Trifluoroacetate] | 8.21 | 5.92 | 6.87
O=S(=O)(Nc1nccs1)c1ccc2c(c1)OCCN2c1ccccc1Cl [Example 46, 4-(2-Chlorophenyl)-N-(Thiazol-2-Yl)-3,4-Dihydro-2H-Benzo[B][1,4]Oxazine-7-Sulfonamide] | 6.78 | < 5.00 | 5.97
O=S(=O)(Nc1ccncn1)c1ccc2c(c1)OCCN2c1ccc(C(F)(F)F)cc1Br [Example 47, 4-(2-Bromo-4-(Trifluoromethyl)Phenyl)-N-(Pyrimidin-4-Yl)-3,4-Dihydro-2H-Benzo[B][1,4]Oxazine-7-Sulfonamide] | 7.84 | 5.10 | 6.52
COCCNc1cc(C(F)(F)F)ccc1N1CCOc2cc(S(=O)(=O)Nc3ccncn3)ccc21 [Example 48, 4-(2-((2-Methoxyethyl)Amino)-4-(Trifluoromethyl)Phenyl)-N-(Pyrimidin-4-Yl)-3,4-Dihydro-2H-Benzo[B][1,4]Oxazine-7-Sulfonamide] | 7.55 | < 5.00 | 6.14
N#Cc1cc(C(F)(F)F)ccc1N1CCOc2cc(S(=O)(=O)Nc3nccs3)ccc21 [Example 49, 4-(2-Cyano-4-(Trifluoromethyl)Phenyl)-N-(Thiazol-2-Yl)-3,4-Dihydro-2H-Benzo[B][1,4]Oxazine-7-Sulfonamide] | 7.82 | 5.94 | 6.71
CN1CCN(c2cc(C(F)(F)F)ccc2N2CCOc3cc(S(=O)(=O)Nc4nccs4)ccc32)CC1 [Example 50, 4-(2-(4-Methylpiperazin-1-Yl)-4-(Trifluoromethyl)Phenyl)-N-(Thiazol-2-Yl)-3,4-Dihydro-2H-Benzo[B][1,4]Oxazine-7-Sulfonamide 2,2,2-Trifluoroacetate] | 6.93 | 6.02 | 6.50
O=S(=O)(Nc1nccs1)c1ccc2c(c1)OCCN2c1ccc(C(F)(F)F)cc1-c1ccncc1 [Example 53, 4-(2-(Pyridin-4-Yl)-4-(Trifluoromethyl)Phenyl)-N-(Thiazol-2-Yl)-3,4-Dihydro-2H-Benzo[B][1,4]Oxazine-7-Sulfonamide 2,2,2-Trifluoroacetate] | 7.65 | 6.26 | 6.69
O=S(=O)(Nc1nccs1)c1ccc2c(c1)OCCN2c1ccc(C(F)(F)F)cc1-c1cncnc1 [Example 54, 4-(2-(Pyrimidin-5-Yl)-4-(Trifluoromethyl)Phenyl)-N-(Thiazol-2-Yl)-3,4-Dihydro-2H-Benzo[B][1,4]Oxazine-7-Sulfonamide 2,2,2-Trifluoroacetate] | 7.94 | 6.14 | 6.23
O=S(=O)(Nc1ccno1)c1ccc2c(c1)OCCN2c1ccc(C(F)(F)F)cc1Cl [Example 55, 4-(2-Chloro-4-(Trifluoromethyl)Phenyl)-N-(Isoxazol-5-Yl)-3,4-Dihydro-2H-Benzo[B][1,4]Oxazine-7-Sulfonamide] | 5.53 | < 5.00 | 4.70
N#Cc1cc(Cl)ccc1N1CCOc2cc(S(=O)(=O)Nc3nccs3)ccc21 [Example 56, 4-(4-Chloro-2-Cyanophenyl)-N-(Thiazol-2-Yl)-3,4-Dihydro-2H-Benzo[B][1,4]Oxazine-7-Sulfonamide] | 7.29 | 5.32 | 6.58
N#Cc1ccccc1N1CCOc2cc(S(=O)(=O)Nc3ncns3)ccc21 [Example 57, 4-(2-Cyanophenyl)-N-(1,2,4-Thiadiazol-5-Yl)-3,4-Dihydro-2H-Benzo[B][1,4]Oxazine-7-Sulfonamide] | 6.81 | 5.17 | 5.71
N#Cc1ccccc1N1CCOc2cc(S(=O)(=O)Nc3nccs3)ccc21 [Example 58, 4-(2-Cyanophenyl)-N-(Thiazol-2-Yl)-3,4-Dihydro-2H-Benzo[B][1,4]Oxazine-7-Sulfonamide 2,2,2-Trifluoroacetate] | 6.65 | 5.20 | 5.59
O=S(=O)(Nc1nccs1)c1ccc2c(c1)OCCN2c1ccccc1C1=CCNCC1 [Example 59, 4-(2-(1,2,3,6-Tetrahydropyridin-4-Yl)Phenyl)-N-(Thiazol-2-Yl)-3,4-Dihydro-2H-Benzo[B][1,4]Oxazine-7-Sulfonamide 2,2,2-Trifluoroacetate] | 7.82 | 5.25 | 6.60
